Measurements published in ChEMBL document CHEMBL3045246, “Investigation on the substitution effects of the flavonoids as potent anticancer agents: a structureactivity relationships study” (Med Chem Res, 2012).

How the values were obtained:
HepG2 = experiment: Cytotoxicity against Homo sapiens (human) HepG2 cells after 48 hr by MTT reduction assay; format: functional, cell-based; conditions: HepG2, 48 h
SMMC-7721 = experiment: Cytotoxicity against Homo sapiens (human) SMMC7721 cells after 48 hr by MTT reduction assay; format: functional, cell-based; conditions: SMMC-7721, 48 h
[1] = target: Cyclin-dependent kinase 1/cyclin B1 (Homo sapiens, UniProt P06493); experiment: Inhibition of CDK1/Cyclin B (unknown origin) by Z-LYTE assay; format: protein-complex assay
Cyclin-dependent kinase 1/cyclin B1, sequence (P06493 whole entry): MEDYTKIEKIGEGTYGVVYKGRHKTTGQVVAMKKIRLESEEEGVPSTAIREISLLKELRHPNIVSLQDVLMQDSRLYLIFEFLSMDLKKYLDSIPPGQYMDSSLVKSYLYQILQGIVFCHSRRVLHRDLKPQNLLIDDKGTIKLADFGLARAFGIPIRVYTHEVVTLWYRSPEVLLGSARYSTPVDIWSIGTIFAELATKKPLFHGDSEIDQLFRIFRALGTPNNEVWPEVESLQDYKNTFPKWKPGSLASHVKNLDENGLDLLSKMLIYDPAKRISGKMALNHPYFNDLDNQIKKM
Cyclin-dependent kinase 1/cyclin B1, sequence (P14635 whole entry, further chain): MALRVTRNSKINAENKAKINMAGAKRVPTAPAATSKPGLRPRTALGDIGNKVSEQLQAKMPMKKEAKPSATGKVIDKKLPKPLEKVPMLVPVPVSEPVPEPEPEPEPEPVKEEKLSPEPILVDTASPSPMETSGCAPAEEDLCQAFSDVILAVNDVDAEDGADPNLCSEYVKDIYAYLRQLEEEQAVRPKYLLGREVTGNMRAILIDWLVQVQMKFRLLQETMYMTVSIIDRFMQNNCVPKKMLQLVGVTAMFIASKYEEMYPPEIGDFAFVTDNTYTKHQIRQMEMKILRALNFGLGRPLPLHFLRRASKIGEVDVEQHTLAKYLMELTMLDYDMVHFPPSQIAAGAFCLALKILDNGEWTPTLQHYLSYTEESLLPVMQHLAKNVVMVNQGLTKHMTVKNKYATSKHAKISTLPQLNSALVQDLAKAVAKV

SMILES	IC50 (HepG2)	IC50 (SMMC-7721)	IC50 [1]
Cc1ccc2oc(-c3ccc(N)cc3)cc(=O)c2c1	21.3 µM	–	–
CN1CCN(Cc2ccc3c(=O)cc(-c4ccccc4Cl)oc3c2)CC1	14.2 µM	12.9 µM	–
O=c1cc(-c2ccccc2Cl)oc2cc(CN3CCNCC3)ccc12	2.58 µM	1.91 µM	–
CN(C)Cc1ccc2c(=O)cc(-c3ccccc3Cl)oc2c1	–	28.2 µM	–
O=c1cc(-c2ccc(Cl)cc2)oc2ccc(CN3CCCCC3)cc12	14 µM	16.2 µM	–
O=c1cc(-c2ccc(Cl)cc2)oc2ccc(CN3CCNCC3)cc12	2.69 µM	1.51 µM	–
CC[N+](CC)(CC)Cc1ccc2oc(-c3ccccc3Cl)cc(=O)c2c1	61 µM	–	–
Nc1ccc(-c2cc(=O)c3cc(CN4CCCCC4)ccc3o2)cc1	2.64 µM	3.68 µM	–
Cc1ccc2c(=O)cc(-c3ccc(Cl)cc3)oc2c1	6.83 µM	–	–
Cc1ccc2c(=O)cc(-c3ccccc3Cl)oc2c1	28.3 µM	–	–
Cc1ccc2c(=O)cc(-c3ccc(N)cc3)oc2c1	40.5 µM	–	–
CN1CCN(Cc2ccc3c(=O)cc(-c4ccc([N+](=O)[O-])cc4)oc3c2)CC1	–	10.7 µM	–
O=c1cc(-c2ccc([N+](=O)[O-])cc2)oc2c(CN3CCNCC3)cc(Cl)cc12	0.243 µM	1.1 µM	4840 nM
CN(C)Cc1cc(Cl)cc2c(=O)cc(-c3ccc([N+](=O)[O-])cc3)oc12	6.19 µM	56.5 µM	–
O=c1cc(-c2ccc([N+](=O)[O-])cc2)oc2c(Cn3ccnc3)cc(Cl)cc12	2.94 µM	1.2 µM	2140 nM
CCN(CC)Cc1cc(Cl)cc2c(=O)cc(-c3ccccc3Cl)oc12	7.94 µM	0.81 µM	2060 nM
O=c1cc(-c2ccccc2Cl)oc2c(CN3CCCCC3)cc(Cl)cc12	10.7 µM	3.4 µM	–

SMILES	IC50 (HepG2)	IC50 (SMMC-7721)	IC50 [1]
CN1CCN(Cc2cc(Cl)cc3c(=O)cc(-c4ccccc4Cl)oc23)CC1	–	3.1 µM	–
O=c1cc(-c2ccccc2Cl)oc2c(CN3CCOCC3)cc(Cl)cc12	6.81 µM	13.2 µM	–
O=c1cc(-c2ccccc2Cl)oc2c(CN3CCNCC3)cc(Cl)cc12	18.7 µM	2.69 µM	–
CN(C)Cc1cc(Cl)cc2c(=O)cc(-c3ccccc3Cl)oc12	1.87 µM	1.14 µM	–
O=c1cc(-c2ccccc2Cl)oc2c(Cn3ccnc3)cc(Cl)cc12	3.27 µM	1.07 µM	–
O=c1cc(-c2ccc(Cl)cc2)oc2c(CN3CCOCC3)cc(Cl)cc12	6.33 µM	15.3 µM	2170 nM
Cc1ccc2oc(-c3ccccc3Cl)cc(=O)c2c1	6.23 µM	15.1 µM	–
CN1CCN(Cc2ccc3oc(-c4ccc([N+](=O)[O-])cc4)cc(=O)c3c2)CC1	–	19 µM	–
Cc1cc(Cl)cc2c(=O)cc(-c3ccc(N)cc3)oc12	11.9 µM	–	–
CCN(CC)Cc1cccc2c(=O)cc(-c3ccc([N+](=O)[O-])cc3)oc12	28.8 µM	–	2210 nM
CN1CCN(Cc2cccc3c(=O)cc(-c4ccc([N+](=O)[O-])cc4)oc23)CC1	2.94 µM	1.19 µM	8130 nM
CCN(CC)Cc1cc(Cl)cc2c(=O)cc(-c3ccc([N+](=O)[O-])cc3)oc12	1.19 µM	2.99 µM	–
O=c1cc(-c2ccc([N+](=O)[O-])cc2)oc2c(CN3CCCCC3)cc(Cl)cc12	8.91 µM	1.09 µM	–
CN1CCN(Cc2cc(Cl)cc3c(=O)cc(-c4ccc([N+](=O)[O-])cc4)oc23)CC1	1.76 µM	5.21 µM	6220 nM
O=c1cc(-c2ccc([N+](=O)[O-])cc2)oc2cc(CN3CCNCC3)ccc12	4.53 µM	2.03 µM	–
CCN(CC)Cc1ccc2c(=O)cc(-c3ccccc3Cl)oc2c1	10.7 µM	–	–
O=c1cc(-c2ccccc2Cl)oc2cc(CN3CCCCC3)ccc12	3.64 µM	–	–
